Values of other authors as cited in patent publication US20210393628A1, “COMPOSITIONS AND METHODS FOR MODULATING T CELL EXHAUSTION” (The Board of Trustees of the Leland Stanford Junior …, priority 2018, published 2021).

Tested on: tonically signaling CAR T cells
Conditions: expanded in the presence of dasatinib

Cc1nc(Nc2ncc(C(=O)Nc3c(C)cccc3Cl)s2)cc(N2CCN(CCO)CC2)n1 [dasatinib]
cytotoxicity: augmented
